In patent publication US20090155387A1, “STABLE PHARMACEUTICAL COMPOSITION COMPRISING BETA-LACTAM ANTIBIOTIC AND ION-CHELATING AGENT” (priority 2006, published 2009):
Entries after “also recorded” stand apart in the source; their conditions may differ. Each block holds one molecule with its values, some of them ahead of it.

What was measured:
[1] = Amounts of β-lactam antibiotic, β-lactamase inhibitor and aminoglycoside antibiotic in solution over time (reverse-phase LC/HPLC); format: physicochemical
Protocol: The amounts of β-lactam antibiotics and β-lactamase inhibitor were determined using C18 reverse-phase LC and UV-VIS detector (Tianjin […] Co., Ltd., analysis method No. HM-K-03). The content of aminoglycoside antibiotics was measured using reverse-phase HPLC and evaporation-light-scattering detector (ELSD detector) (Tianjin […] Co., Ltd., analysis method No. HM-K-08). The amount of antibiotic component at each time point was expressed as a percentage with respect to the amount at the initial time. The relative amount of each antibiotic component in the composition at each time point was expressed as peak area ratio with respect to the corresponding peak area of an external standard.

[2] = HIAC light obscuration test (USP 788), particle content of solution preparations; format: physicochemical; settings: HIAC test results, composition in the form of a liquid solution
Protocol: Light obscuration testing was performed for solution preparations prepared with some of the compositions described in the examples according to the method described in the United States Pharmacopeia (USP 788) using HIAC-3000 light obscuration detector. Particle content is denoted by the number of particles per milliliter of solution. The value is an average of two measurements. Samples were tested at 1 hour and at 20 hours.

amount (percentage of initial amount) ([1]; in Example 10 solution, pH 6.5, room temperature, 0 h): 92.06%
amount (percentage of initial amount) ([1]; in Example 10 solution, pH 6.5, room temperature, 1 h): 99.84%
amount (percentage of initial amount) ([1]; in Example 10 solution, pH 6.5, room temperature, 2 h): 99.73%
amount (percentage of initial amount) ([1]; in Example 10 solution, pH 6.5, room temperature, 4 h): 98.64%
amount (percentage of initial amount) ([1]; in Example 10 solution, pH 6.5, room temperature, 6 h): 94.27%
amount (percentage of initial amount) ([1]; in Example 10 solution, pH 6.5, room temperature, 8 h): 96.48%
amount (percentage of initial amount) ([1]; in Example 25 solution, pH 6.75, room temperature, 0 h): 100.9%
amount (percentage of initial amount) ([1]; in Example 25 solution, pH 6.75, room temperature, 1 h): 104.6%
amount (percentage of initial amount) ([1]; in Example 25 solution, pH 6.75, room temperature, 2 h): 100.1%
amount (percentage of initial amount) ([1]; in Example 25 solution, pH 6.75, room temperature, 4 h): 81.34%
amount (percentage of initial amount) ([1]; in Example 25 solution, pH 6.75, room temperature, 6 h): 103.7%
amount (percentage of initial amount) ([1]; in Example 25 solution, pH 6.75, room temperature, 8 h): 102.2%
SMILES: CO/N=C(\C(=O)N[C@@H]1C(=O)N2C(C(=O)O)=C(CSc3nc(C)c(CC(=O)O)s3)CS[C@H]12)c1csc(N)n1 [Cefodizime sodium]

SMILES: O=C(O)CN(CCN(CC(=O)O)CC(=O)O)CC(=O)O [EDTA, ethylenediamine tetraacetic acid]
effect on aggregate particle formation in solution preparations [2]: can significantly reduce aggregate particle formation; also recorded: effective in inhibiting formation of aggregate particles

amount (percentage of initial amount) ([1]; in Example 6 solution, pH 6.5, room temperature, 0 h): 108.9%
amount (percentage of initial amount) ([1]; in Example 6 solution, pH 6.5, room temperature, 1 h): 100.2%
amount (percentage of initial amount) ([1]; in Example 6 solution, pH 6.5, room temperature, 2 h): 100.5%
amount (percentage of initial amount) ([1]; in Example 6 solution, pH 6.5, room temperature, 4 h): 100.4%
amount (percentage of initial amount) ([1]; in Example 6 solution, pH 6.5, room temperature, 6 h): 100.4%
amount (percentage of initial amount) ([1]; in Example 6 solution, pH 6.5, room temperature, 8 h): 97.50%
amount (percentage of initial amount) ([1]; in Example 13 solution (Example 12 solution + etimicin sulfate), 0 h): 100%
amount (percentage of initial amount) ([1]; in Example 13 solution (Example 12 solution + etimicin sulfate), 1 h): 98.8%
amount (percentage of initial amount) ([1]; in Example 13 solution (Example 12 solution + etimicin sulfate), 2 h): 97.5%
amount (percentage of initial amount) ([1]; in Example 13 solution (Example 12 solution + etimicin sulfate), 4 h): 98.4%
amount (percentage of initial amount) ([1]; in Example 13 solution (Example 12 solution + etimicin sulfate), 6 h): 95.6%
amount (percentage of initial amount) ([1]; in Example 13 solution (Example 12 solution + etimicin sulfate), 8 h): 92.8%
amount (percentage of initial amount) ([1]; in Example 17 solution, pH 6.5, room temperature, 0 h): 100.1%
amount (percentage of initial amount) ([1]; in Example 17 solution, pH 6.5, room temperature, 1 h): 100.4%
amount (percentage of initial amount) ([1]; in Example 17 solution, pH 6.5, room temperature, 2 h): 99.31%
amount (percentage of initial amount) ([1]; in Example 17 solution, pH 6.5, room temperature, 4 h): 99.56%
amount (percentage of initial amount) ([1]; in Example 17 solution, pH 6.5, room temperature, 6 h): 99.61%
amount (percentage of initial amount) ([1]; in Example 17 solution, pH 6.5, room temperature, 8 h): 99.25%
amount (percentage of initial amount) ([1]; in Example 18 solution (2.5% fructose), pH 6.5, room temperature, 0 h): 100.1%
amount (percentage of initial amount) ([1]; in Example 18 solution (2.5% fructose), pH 6.5, room temperature, 1 h): 100.6%
amount (percentage of initial amount) ([1]; in Example 18 solution (2.5% fructose), pH 6.5, room temperature, 2 h): 99.79%
amount (percentage of initial amount) ([1]; in Example 23 solution (2.5% fructose), pH 6.75, room temperature, 0 h): 104.5%
amount (percentage of initial amount) ([1]; in Example 23 solution (2.5% fructose), pH 6.75, room temperature, 1 h): 99.13%
amount (percentage of initial amount) ([1]; in Example 23 solution (2.5% fructose), pH 6.75, room temperature, 2 h): 103.3%
amount (percentage of initial amount) ([1]; in Example 23 solution (2.5% fructose), pH 6.75, room temperature, 4 h): 98.75%
amount (percentage of initial amount) ([1]; in Example 23 solution (2.5% fructose), pH 6.75, room temperature, 6 h): 101.6%
amount (percentage of initial amount) ([1]; in Example 23 solution (2.5% fructose), pH 6.75, room temperature, 8 h): 96.42%
amount (percentage of initial amount) ([1]; in Example 26 solution (2.5% fructose), pH 6.75, room temperature, 0 h): 94.69%
amount (percentage of initial amount) ([1]; in Example 26 solution (2.5% fructose), pH 6.75, room temperature, 1 h): 102.9%
amount (percentage of initial amount) ([1]; in Example 26 solution (2.5% fructose), pH 6.75, room temperature, 2 h): 109.3%
amount (percentage of initial amount) ([1]; in Example 26 solution (2.5% fructose), pH 6.75, room temperature, 4 h): 108.8%
amount (percentage of initial amount) ([1]; in Example 26 solution (2.5% fructose), pH 6.75, room temperature, 6 h): 109.6%
amount (percentage of initial amount) ([1]; in Example 26 solution (2.5% fructose), pH 6.75, room temperature, 8 h): 105.2%
SMILES: CCN[C@@H]1C[C@H](N)[C@@H](O[C@H]2O[C@H](CN)CC[C@H]2N)[C@H](O)[C@H]1O[C@H]1OC[C@](C)(O)[C@H](NC)[C@H]1O [Etimicin]
